Assay results published in patent US10350152B2, “Skin whitening composition, and method for screening for materials having skin whitening effect” (AMOREPACIFIC CORPORATION, priority 2015, dated 2019).

Tests used:
melanocytes = assay: Viability of melanocytes cultured with exosomes (crystal violet cytotoxicity test); format: cell-based, human; settings: exosomes from melanocytes treated with ultraviolet rays together with inhibitor; recipient melanocytes irradiated with UVB 20 mJ/cm^2, cultured 3 days
Procedure: Normal human melanocytes (Cascade Biologics, Portland, Oreg., USA) were kept in M-254 medium (Cascade) containing a human melanocyte growth supplement (Cascade). GW4869 (Santa Cruz Biotechnology, Santa Cruz, Calif., USA) and pifithrin-μ (Sigma, St. Louis, Mo., USA) were dissolved in DMSO for use. Melanocytes were seeded in a 6-well plate at a density of 1×10^4 cells/well. The next day, 10 μl of exosomes isolated from the same number of cells were treated. Cells were fixed with 4% formaldehyde in PBS for 15 minutes, washed with PBS and stained with 0.1% crystal violet for 20 minutes. After washing with PBS, the cells were dried and lysed with 10% acetic acid. The absorbance was measured at 590 nm using a spectrophotometer. Each of the exosomes obtained from UVB-untreated melanocytes, UVB-treated melanocytes, or UVB- and GW4869-treated melanocytes, together with melanocytes, were irradiated with UVB (20 mJ/cm^2), and cultured for 3 days.

Normal human melanocytes = assay: Amount of secretion of exosomes from UVB-irradiated melanocytes (exosome marker CD81, western blot); format: cell-based; settings: 10 μM, treated for 12 hours before UVB exposure (20 mJ/cm^2), cultured 24 hours
Procedure: Normal human melanocytes (Cascade Biologics, Portland, Oreg., USA) were kept in M-254 medium (Cascade) containing a human melanocyte growth supplement (Cascade). GW4869 (Santa Cruz Biotechnology, Santa Cruz, Calif., USA) and pifithrin-μ (Sigma, St. Louis, Mo., USA) were dissolved in DMSO for use. For isolation of exosomes, confluent melanocytes were washed with PBS and cultured in M-254 for 48 hours. Conditioned medium was collected and centrifuged at 500×g for 10 minutes, 3,000×g for 20 minutes, and 100,000×g for 2 hours. The resultant exosome-containing pellet was resuspended in PBS and stored at −80° C. Also, conditioned medium was purified by filtration through a 0.45 μm pore filter (Millipore, Billerica, Mass., USA) and concentrated using a 100 kDa cut-off spin column (Millipore). Exosomes were isolated using the ExoQuick-TC kit (SBI, San Jose, Calif., USA) according to the manufacturer's instructions. 20 μl of isolated exosomes were analyzed by western blot and silver staining. Cells or isolated exosomes were lysed with lysis buffer (1% NP-40, 0.05 M Tris-HCl, pH 7.5, 0.15 M NaCl, and 0.01 M MgCl2) containing protease inhibitors (Sigma). Protein concentrations were determined using BCA assays, and samples were […] by SDS-PAGE, transferred to a PVDF membrane, and probed with antibodies against CD81 (SBI). […]

Structure (SMILES): NS(=O)(=O)C#Cc1ccccc1 [pifithrin-μ]
- effect of exosomes from UVB- and inhibitor-treated melanocytes on viability of ultraviolet-irradiated melanocytes (melanocytes): reduced effect in the enhancement of the viability of melanocytes
- amount of expression of the exosome marker CD81 (Normal human melanocytes): decreased

Structure (SMILES): Cl.Cl.O=C(/C=C/c1ccc(/C=C/C(=O)Nc2ccc(C3=NCCN3)cc2)cc1)Nc1ccc(C2=NCCN2)cc1 [GW4869]
- effect of exosomes from UVB- and inhibitor-treated melanocytes on viability of ultraviolet-irradiated melanocytes (melanocytes): reduced effect in the enhancement of the viability of melanocytes
- amount of expression of the exosome marker CD81 (Normal human melanocytes): decreased
